Structures are written as SMILES.

The test relates to A2780 cells. Put plainly: Annexin V/PI apoptosis assay. The format is cell-based, human. The following applies: 24 h. From the text:
To elucidate if observed cytotoxicity of new compounds described in this study was a result of apoptosis induction, we conducted Annexin V/PI apoptosis assay. In brief, fluorochrome-labeled Annexin V reagent is used for detection of membrane phosphatidylserine (PS), which translocates to the cellular surface from the inner side of plasma membrane in the event of early apoptosis. Simultaneously, PI is used for detection of later stages of apoptosis or necrosis, which are characterized by loss of membrane integrity and accumulation of PI inside the cells. […] Results are illustrated in Figure 9. Upon incubation of A2780 cells with increasing concentrations of HL^2 and 2, the dose-dependent increase of apoptotic cells was observed.
A2780 cells were seeded into Cellstar 12-well plates (Greiner Bio-One) at a density of 20 × 10^4 cells/well (1 mL per well). The cells were allowed to resume exponential growth for 24 h and subsequently they were exposed to HL^2 and 2 at different concentrations for 24 h. After the supernatant solution was collected in 1.5 mL microtubes, the cells were washed with 100 μL of trypsin, which was combined with the supernatant. Subsequently, cells were trypsinized with 200 μL of trypsin for 5 min at 37 °C, 5% CO2, washed with 200 μL of PBS, and combined with the supernatant. The cells were centrifuged at 2.5 × 10^3 rpm for 5 min and the pellets were washed once with PBS and resuspended in 500 μL of Annexin V binding buffer and stained with Annexin V-FITC and PI reagents. The fluorescence was immediately analyzed by flow cytometry. The resulting dot blots were acquired from 10 000 events and quantified using Flowjo software (Flowjo LLC, Ashland, OR, USA).

For `CN(C)C(=NN=Cc1ccc(CN2CCOCC2)cn1)[S][Cu][Cl]` [complex 2, [Cu(L^2)Cl]], the apoptotic cells was determined as 22.5 ± 5.3% (A2780, 2IC50 concentration) and 24.4 ± 7.8% (A2780, 6IC50 concentration).

The values above are taken from PMC6348444, “New Water-Soluble Copper(II) Complexes with Morpholine–Thiosemicarbazone Hybrids: Insights into the Anticancer and Antibacterial Mode of Action” (Journal of Medicinal Chemistry, 2018).
